Our source for the EC50 values is patent publication US12351580B2, “NLRP3 modulators” (Innate Tumor Immunity, Inc., priority 2017, dated 2025).

For one test, the target named is T1, TLR7 (Homo sapiens, UniProt Q9NYK1).
T1 construct: host or cells: HEK-Blue cells (human HEK) co-expressing TLR7 and an NF-kB/AP1-inducible SEAP reporter
T1 sequence (Q9NYK1 27-1049): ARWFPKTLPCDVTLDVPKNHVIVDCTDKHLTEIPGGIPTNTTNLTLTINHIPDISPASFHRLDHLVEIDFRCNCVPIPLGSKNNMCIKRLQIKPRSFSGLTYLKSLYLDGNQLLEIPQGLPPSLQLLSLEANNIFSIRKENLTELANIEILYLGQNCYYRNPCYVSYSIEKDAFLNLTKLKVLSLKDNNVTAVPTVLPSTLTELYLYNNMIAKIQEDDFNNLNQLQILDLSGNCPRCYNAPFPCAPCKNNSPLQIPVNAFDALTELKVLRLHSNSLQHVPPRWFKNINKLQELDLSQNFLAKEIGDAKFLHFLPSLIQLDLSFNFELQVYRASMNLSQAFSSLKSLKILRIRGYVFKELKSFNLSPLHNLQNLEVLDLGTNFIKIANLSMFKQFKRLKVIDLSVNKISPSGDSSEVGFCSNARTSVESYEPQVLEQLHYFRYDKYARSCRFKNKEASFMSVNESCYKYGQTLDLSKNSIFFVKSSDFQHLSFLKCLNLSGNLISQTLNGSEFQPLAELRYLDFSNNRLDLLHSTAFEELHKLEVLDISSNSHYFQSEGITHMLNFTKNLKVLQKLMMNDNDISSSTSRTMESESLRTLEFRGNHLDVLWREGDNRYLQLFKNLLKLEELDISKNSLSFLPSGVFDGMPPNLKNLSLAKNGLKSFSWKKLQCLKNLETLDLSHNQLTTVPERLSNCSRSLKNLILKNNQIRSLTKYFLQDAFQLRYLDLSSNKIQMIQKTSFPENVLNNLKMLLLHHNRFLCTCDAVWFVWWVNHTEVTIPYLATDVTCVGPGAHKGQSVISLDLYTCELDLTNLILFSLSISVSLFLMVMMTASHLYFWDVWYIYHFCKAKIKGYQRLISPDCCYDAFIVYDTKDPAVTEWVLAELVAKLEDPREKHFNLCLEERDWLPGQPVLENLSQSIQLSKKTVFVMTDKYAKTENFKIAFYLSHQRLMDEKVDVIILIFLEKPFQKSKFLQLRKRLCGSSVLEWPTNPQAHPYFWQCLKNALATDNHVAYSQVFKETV
Nature of the test: In vitro human TLR7 binding reporter assay (HEK-Blue, NF-kB/AP1-inducible SEAP). It counts as cell-based. The following applies: activity range symbols. The procedure, abridged: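 Reporter cells are plated at 15,000 per well and rested 24 h. Next day, test compounds or DMSO are dispensed, followed by 18 h incubation at 37 °C, 5% CO2.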
(In a reporter assay the amount or activity of a reporter protein is the signal.)

In the next test the target is T2, TLR8 (Homo sapiens, UniProt Q9NR97).
T2 construct: host or cells: HEK-Blue cells (human HEK) co-expressing TLR8 and an NF-kB/AP1-inducible SEAP reporter
T2 sequence (Q9NR97 27-1041): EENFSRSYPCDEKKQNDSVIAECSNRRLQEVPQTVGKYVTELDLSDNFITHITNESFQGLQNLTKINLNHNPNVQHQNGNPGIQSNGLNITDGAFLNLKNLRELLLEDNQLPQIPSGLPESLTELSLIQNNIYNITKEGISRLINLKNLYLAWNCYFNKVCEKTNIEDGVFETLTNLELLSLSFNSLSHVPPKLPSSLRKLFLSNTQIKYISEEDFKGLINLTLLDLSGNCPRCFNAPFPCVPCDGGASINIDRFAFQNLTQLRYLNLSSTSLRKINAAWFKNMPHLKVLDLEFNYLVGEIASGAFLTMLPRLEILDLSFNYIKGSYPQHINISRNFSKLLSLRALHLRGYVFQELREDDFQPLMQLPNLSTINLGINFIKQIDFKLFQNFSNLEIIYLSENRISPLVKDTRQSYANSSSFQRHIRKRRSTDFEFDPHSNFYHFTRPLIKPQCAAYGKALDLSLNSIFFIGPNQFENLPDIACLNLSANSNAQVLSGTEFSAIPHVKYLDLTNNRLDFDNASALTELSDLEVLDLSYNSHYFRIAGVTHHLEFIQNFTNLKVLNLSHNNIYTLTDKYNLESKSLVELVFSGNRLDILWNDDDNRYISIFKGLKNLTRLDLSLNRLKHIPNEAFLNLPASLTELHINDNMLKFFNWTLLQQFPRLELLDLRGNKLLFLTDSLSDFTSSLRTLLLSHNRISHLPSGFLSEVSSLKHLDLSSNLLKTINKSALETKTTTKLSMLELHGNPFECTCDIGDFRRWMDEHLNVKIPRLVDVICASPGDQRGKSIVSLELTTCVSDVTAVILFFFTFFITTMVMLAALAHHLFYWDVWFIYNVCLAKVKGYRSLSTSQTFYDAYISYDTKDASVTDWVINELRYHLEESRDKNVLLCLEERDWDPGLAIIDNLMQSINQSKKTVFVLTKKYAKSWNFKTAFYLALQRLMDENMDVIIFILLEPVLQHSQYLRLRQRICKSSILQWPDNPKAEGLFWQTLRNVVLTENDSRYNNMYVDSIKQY
Nature of the test: In vitro human TLR8 binding reporter assay (HEK-Blue, NF-kB/AP1-inducible SEAP). It counts as cell-based. The following applies: activity range symbols. The method, then: In Vitro Human TLR7 and TLR8 Binding Reporter Assays
Logarithmically-growing human HEK-Blue cells co-expressing a TLR7 or TLR8 gene and a NF-kB/AP1-inducible SEAP (secreted embryonic alkaline phosphatase; Invivogen, San Diego, CA) reporter gene are added to individual wells of a 384-well plate (15,000 cells per 20 μL per well) and maintained for 24 h at 37° C., 5% CO2. Test compounds or DMSO are distributed to separate wells the next day using acoustic liquid handling technology (100 nL per well) and cells are subsequently incubated for 18 h at 37° C., 5% CO2. Cellular SEAP production is measured using an Envision plate reader instrument thirty minutes after adding freshly-made Quanti-Blue reagent (prepared by following manufacturer instructions; Invivogen, San Diego, CA) to the HEK-Blue TLR Nf-kB-SEAP cell reactions. All EC50 values (half-maximal effective concentration) are determined using proprietary data analysis software.

As usually defined, the EC50 is the concentration needed to bring the measured effect to its halfway point. A higher EC50 goes with weaker potency. Take `CCN(Cc1nc2c(N)nc3cc(C4CC4)ccc3c2n1Cc1ccc(OC)cc1)C(C)=O` [Compound 190]: the EC50 on TLR7 and at TLR8 was > 100 µM in each case.

As for `CCN(Cc1nc2c(N)nc3ccccc3c2n1CCCNC(=O)OC(C)(C)C)C(C)=O` [Compound 191], the EC50 on TLR7 and on TLR8 was > 100 µM each time.

For the molecule `CCN(Cc1nc2c(N)nc3ccc(Br)cc3c2[nH]1)C(C)=O` [Compound 194], the EC50 on TLR7 and on TLR8 was > 100 µM each time.

As to `CCN(Cc1nc2c(N)nc3cc(N4CCNC4=O)ccc3c2n1Cc1ccc(OC)cc1)C(C)=O` [Compound 196], the EC50 at TLR7 and at TLR8 was > 100 µM throughout.

Regarding `CCN(Cc1nc2c(N)nc3ccc(Cl)cc3c2[nH]1)C(C)=O` [Compound 197], the EC50 at TLR7 and on TLR8 was > 100 µM each time.

With `CCOC(=O)c1cc2c(cc1Br)nc(N)c1nc(CN(CC)C(C)=O)[nH]c12` [Compound 198], the EC50 at TLR7 and at TLR8 was > 100 µM throughout.

For the molecule `CCN(Cc1nc2c(N)nc3ccc(Br)cc3c2[nH]1)C(=O)OC` [Compound 200], the EC50 at TLR7 and at TLR8 was > 100 µM in each case.

For the molecule `CCN(Cc1nc2c(N)nc3ccc(Br)cc3c2[nH]1)S(C)(=O)=O` [Compound 201], the EC50 at TLR7 and at TLR8 was > 100 µM throughout.

For the molecule `CCN(Cc1nc2c(N)nc3ccc(Br)cc3c2[nH]1)S(=O)(=O)c1ccc(C)cc1` [Compound 202], the concentration for a half-maximal effect (EC50) on TLR7 and at TLR8 was > 100 µM throughout.

As for `CCN(Cc1nc2c(N)nc3ccc(Br)cc3c2[nH]1)C(=O)C(C)C` [Compound 203], the EC50 on TLR7 and on TLR8 was > 100 µM each time.

For `CCN(Cc1nc2c(N)nc3ccc(Br)cc3c2[nH]1)C(=O)c1ccccc1` [Compound 204], the EC50 on TLR7 and at TLR8 was > 100 µM throughout.

Turning to `CCN(Cc1nc2c(N)nc3ccccc3c2n1CCC(=O)N1CCOCC1)C(=O)OC(C)(C)C` [Compound 205], the EC50 at TLR7 and at TLR8 was > 100 µM each time.

Turning to `CCN(Cc1nc2c(N)nc3ccc(-n4cccn4)cc3c2[nH]1)C(C)=O` [Compound 207], the half-maximal effective concentration (EC50) on TLR7 and on TLR8 was > 100 µM in each case.

For the molecule `CCN(Cc1nc2c(N)nc3cc(Br)ccc3c2n1CCCC(=O)N1CCN(C)CC1)C(C)=O` [Compound 209], the EC50 on TLR7 and on TLR8 was > 100 µM throughout.

Take `CCN(Cc1nc2c(N)nc3cc(Br)ccc3c2n1CCCC(=O)NC)C(C)=O` [Compound 210]: the EC50 at TLR7 and at TLR8 was > 100 µM throughout.

In the case of `CCN(Cc1nc2c(N)nc3ccccc3c2n1CCC(=O)N1CCN(C(=O)OC(C)(C)C)CC1)C(=O)OC(C)(C)C` [Compound 211], the EC50 at TLR7 and at TLR8 was > 100 µM in each case.

Consider `CCN(Cc1nc2c(N)nc3ccccc3c2n1CCC(=O)N1CCN(C(=O)OC(C)(C)C)CC1)C(C)=O` [Compound 212], for which the EC50 on TLR7 and at TLR8 was > 100 µM each time.

On to `CCN(Cc1nc2c(N)nc3cc(Br)ccc3c2n1CCCC(=O)N(C)C)C(C)=O` [Compound 213], for which the concentration giving a half-maximal response (EC50) at TLR7 and at TLR8 was > 100 µM throughout.

For the molecule `CCN(Cc1nc2c(N)nc3cc(Br)ccc3c2n1CCCC(=O)N1CCOCC1)C(C)=O` [Compound 214], the concentration for a half-maximal effect (EC50) at TLR7 and at TLR8 was > 100 µM throughout.

For the molecule `CN(C)C(=O)CCCn1c(CN2CCCC2=O)nc2c(N)nc3cc(Br)ccc3c21` [Compound 215], the EC50 at TLR7 and at TLR8 was > 100 µM throughout.

For `COC(=O)CCCn1c(CN2CCCC2=O)nc2c(N)nc3cc(Cl)ccc3c21` [Compound 216], the EC50 at TLR7 and at TLR8 was > 100 µM throughout.

Turning to `CCN(Cc1nc2c(N)nc3cc(Cl)ccc3c2n1CCCC(=O)NC)C(C)=O` [Compound 217], the EC50 at TLR7 and at TLR8 was > 100 µM throughout.

On to `CCN(Cc1nc2c(N)nc3cc(Br)ccc3c2n1CCCC(=O)OC)C(C)=O` [Compound 218], for which the EC50 on TLR7 and on TLR8 was > 100 µM throughout.

Regarding `CCN(Cc1nc2c(N)nc3cc(Cl)ccc3c2n1CCCC(=O)OC)C(C)=O` [Compound 219], the EC50 on TLR7 and on TLR8 was > 100 µM throughout.

`CCN(Cc1nc2c(N)nc3cc(Cl)ccc3c2n1CCCC(=O)N1CCOCC1)C(C)=O` [Compound 220]: the EC50 on TLR7 and on TLR8 was > 100 µM throughout.

For `CCN(Cc1nc2c(N)nc3cc(Cl)ccc3c2n1CCCC(=O)N1CCN(C)CC1)C(C)=O` [Compound 221], the EC50 on TLR7 and at TLR8 was > 100 µM throughout.

`CCN(Cc1nc2c(N)nc3cc(Cl)ccc3c2n1CCCC(=O)N1CCCC1)C(C)=O` [Compound 222]: the EC50 at TLR7 and at TLR8 was > 100 µM each time.

As to `CCN(Cc1nc2c(N)nc3ccccc3c2n1CCC(=O)N1CCS(=O)(=O)CC1)C(=O)OC(C)(C)C` [Compound 223], the EC50 on TLR7 is 20 to 100 µM; at TLR8 it was > 100 µM.

With `CCNCc1nc2c(N)nc3cc(Br)ccc3c2[nH]1` [Compound 225], the EC50 at TLR7 is > 100 µM; at TLR8 it was 1 to 20 µM.

With `CCN(Cc1nc2c(N)nc3cc(C(F)(F)F)ccc3c2n1CCCC(=O)NC)C(=O)OC(C)(C)C` [Compound 226], the EC50 at TLR7 and on TLR8 was > 100 µM throughout.

`CCNCc1nc2c(N)nc3cc(C(F)(F)F)ccc3c2n1CCCC(=O)OC` [Compound 227]: the concentration giving a half-maximal response (EC50) at TLR7 was 20 to 100 µM; at TLR8 it was > 100 µM.

Turning to `CCN(Cc1nc2c(N)nc3cc(C(F)(F)F)ccc3c2n1CCCC(=O)N1CCOCC1)C(=O)OC(C)(C)C` [Compound 228], the 50% effective concentration (EC50) on TLR7 and on TLR8 was > 100 µM each time.

With `CCN(Cc1nc2c(N)nc3cc(C(F)(F)F)ccc3c2n1CCCC(=O)OC)C(C)=O` [Compound 229], the EC50 on TLR7 and at TLR8 was > 100 µM throughout.

As to `COc1ccc(-c2ccc3c(c2)nc(N)c2nc(CN4CCCC4=O)[nH]c23)cc1` [Compound 230], the EC50 at TLR7 and on TLR8 was > 100 µM in each case.

For `CC(=O)NCc1nc2c(N)nc3ccccc3c2[nH]1` [Compound 233], the EC50 was 1 to 20 µM on TLR7 and > 100 µM at TLR8.
